Data as given in PMC9048841 (Journal of medicinal chemistry, 2022).
*1 amine or outer side, *2 acyl side, *3 side chain or, on linkers, in order; H or OH if unused. Where a SMILES comes first, the peptide text is derived from it. [ ]: non-standard residue; d: D form. The star is where a group is joined. Phe(3,4-(OMe)2) = COc1ccc(C[C@H](N)C(=O)O)cc1OC; Lys(Et,iPr) = CCN(CCCC[C@H](N)C(=O)O)C(C)C; X2 = O=C(C(N[*:1])[C@@H](O)c1ccccc1)[*:2]; Lys(Et2) = CCN(CC)CCCC[C@H](N)C(=O)O; Lys(Me2) = CN(C)CCCC[C@H](N)C(=O)O; X1 = O=C(c1ccoc1)*

How the values were obtained:
[1] = molecular target: CBX5 chromodomain (wild type) (Homo sapiens, UniProt P45973); experiment: ITC binding to wild-type CBX5 chromodomain; details: for fold tighter binding of CBX5 than to UNC6212 (Kme2): wild-type CBX5, relative to UNC6212
[2] = molecular target: H3K9me3 peptide (Homo sapiens) (UniProt P68431); details: cited from earlier work

Kd [1] [µM]	fold tighter binding than HP1 with H3K9me3 ([1]; CBX5 with UNC6212 vs HP1 with H3K9me3)	fold more potent than histone tail peptides H3K9me3 and H3K9me2 ([1]; KD for CBX5, ligand vs H3K9me3 and H3K9me2)	fold tighter binding of CBX5 than to UNC6212 (Kme2) [1]	Compound	Kd [2] [µM]
5.7	about 2.5 fold	about 5 fold		COc1ccc(C[C@H](NC(=O)[C@H](C)NC(=O)C(NC(=O)c2ccoc2)[C@@H](O)c2ccccc2)C(=O)N[C@@H](CCCCN(C)C)C(=O)N[C@@H](CO)C(N)=O)cc1OC (stereo partly drawn) [UNC6212, N-((7S,10S,13S,17S)-7-(((S)-1-amino-3-hydroxy-1-oxopropan-2-yl)carbamoyl)-10-(3,4-dimethoxybenzyl)-17-hydroxy-2,13-dimethyl-9,12,15-trioxo-17-phenyl-2,8,11,14-tetraazaheptadecan-16-yl)furan-3-carboxamide] (X1-[X2]A[Phe(3,4-(OMe)2)][Lys(Me2)]S-NH2)	
			about 2 fold	CCN(CC)CCCC[C@H](NC(=O)[C@H](Cc1ccc(OC)c(OC)c1)NC(=O)[C@H](C)NC(=O)C(NC(=O)c1ccoc1)[C@@H](O)c1ccccc1)C(=O)N[C@@H](CO)C(N)=O (stereo partly drawn) [UNC6349, N-((8S,11S,14S,18S)-8-(((S)-1-amino-3-hydroxy-1-oxopropan-2-yl)carbamoyl)-11-(3,4-dimethoxybenzyl)-3-ethyl-18-hydroxy-14-methyl-10,13,16-trioxo-18-phenyl-3,9,12,15-tetraazaoctadecan-17-yl)furan-3-carboxamide] (X1-[X2]A[Phe(3,4-(OMe)2)][Lys(Et2)]S-NH2)	
3.3			about 2 fold	CCN(CCCC[C@H](NC(=O)[C@H](Cc1ccc(OC)c(OC)c1)NC(=O)[C@H](C)NC(=O)C(NC(=O)c1ccoc1)[C@@H](O)c1ccccc1)C(=O)N[C@@H](CO)C(N)=O)C(C)C (stereo partly drawn) [UNC6864, N-((8S,11S,14S,18S)-8-(((S)-1-amino-3-hydroxy-1-oxopropan-2-yl)carbamoyl)-11-(3,4-dimethoxybenzyl)-3-ethyl-18-hydroxy-2,14-dimethyl-10,13,16-trioxo-18-phenyl-3,9,12,15-tetraazaoctadecan-17-yl)furan-3-carboxamide] (X1-[X2]A[Phe(3,4-(OMe)2)][Lys(Et,iPr)]S-NH2)	
				CBX5 (from UniProt P45973)	30
